Data taken from patent US10414797B2, “Gelatinase inhibitors and use thereof” (Iproteos S.L, priority 2015, dated 2019).
pIC50: −log10 of the molar value. Where a SMILES comes first, the peptide text is derived from it. [ ]: non-standard residue; d: D form. The star is where a group is joined. ξ: configuration not given here. Pro(trans-4-F) = O=C(O)[C@@H]1C[C@@H](F)CN1; NMeIle(3ξ) = CCC(C)[C@H](NC)C(=O)O; Dab = NCC[C@H](N)C(=O)O; Hexanoyl = CCCCCC(=O)*; Bz = O=C(c1ccccc1)*; NHOH = ON*

What was measured:
MMP-1 = MMP-1 (Homo sapiens (Human), UniProt P03956); assay: MMP-1 inhibition assay (fluorogenic peptide substrate); type: biochemical; conditions: recombinant MMP-1 5.52 nM, Mca-PLGL-Dpa-AR-NH2 10 μM, 4 hours at room temperature; tested at 1, 10, 100 and 200 μM
MMP-1, sequence (P03956 100-269): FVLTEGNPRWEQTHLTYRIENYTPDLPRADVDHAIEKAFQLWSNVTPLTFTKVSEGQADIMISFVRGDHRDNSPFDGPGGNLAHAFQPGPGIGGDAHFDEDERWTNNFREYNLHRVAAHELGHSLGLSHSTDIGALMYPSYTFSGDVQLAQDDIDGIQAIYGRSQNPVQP
Experimental: (§1) All the experiments were done in 1× reaction buffer, which was obtained from a 10× reaction buffer solution. The content of the 10× reaction buffer was: 50 mL of 0.5 M Tris-HCl, 1.5 M NaCl, 50 mM CaCl2 and 2 mM sodium azide at pH 7.6. To obtain the 1× reaction buffer 4 mL of the 10× reaction buffer were diluted in 36 mL of H2O.
Recombinant MMP-1 expressed in E. Coli was obtained from Enzo Life Sciences (catalog number BML-SE180). Mca-PLGL-Dpa-AR-NH2 (fluorogenic peptide substrate) was obtained from R&D Systems (catalog number ES001).
Preparation of the MMP-1 for the activity assay: MMP-1 was provided as a stock solution (0.55 mg/mL). The enzyme was diluted in 1× reaction buffer to a final concentration of 276 nM.
MMP-1 peptide substrate was provided as a stock solution in DMSO (6 mM). For the assay, the substrate was diluted 1× reaction buffer to a concentration of 100 μM.
Procedure: The enzymatic assays were performed in 96-well microtiter plate, which allowed simultaneous monitoring of multiple reactions. For each reaction, 86 μL of 1× reaction buffer (pH 7.6), 2 μL of MMP-1 (final concentration 5.52 nM) and 2 μL of the corresponding new compound were added to each well. A stock solution of the new compound was prepared in DMSO (100 mM), and dilutions were prepared from this stock solution with DMSO. Finally, to the mixture contained in each well 10 μL of the substrate were added (final concentration 10 μM). The reaction was incubated for 4 hours at room temperature in an orbital shaker (100 rpm).
(§2) The inhibitory activity of the new compound was measured fluorimetrically. The excitation and emission wavelengths were 320 and 405 nm, respectively.
(§3) Inhibitory activity at several concentration points (1, 10, 100 and 200 μM) were measured for each compound. The inhibitory activity on MMP-1, MMP-3 and MMP-7 was calculated according to eq 1 and The IC50 value was calculated as explained above for MMP-2 and MMP-9.

MMP-3 = MMP-3 (Homo sapiens (Human), UniProt P08254); assay: MMP-3 inhibition assay (fluorogenic peptide substrate); type: biochemical; conditions: recombinant MMP-3 7.7 nM, Mca-RPKPVE-Nval-WRK(Dnp)-NH2 10 μM, 4 hours at room temperature; tested at 1, 10, 100 and 200 μM
MMP-3, sequence (P08254 100-477): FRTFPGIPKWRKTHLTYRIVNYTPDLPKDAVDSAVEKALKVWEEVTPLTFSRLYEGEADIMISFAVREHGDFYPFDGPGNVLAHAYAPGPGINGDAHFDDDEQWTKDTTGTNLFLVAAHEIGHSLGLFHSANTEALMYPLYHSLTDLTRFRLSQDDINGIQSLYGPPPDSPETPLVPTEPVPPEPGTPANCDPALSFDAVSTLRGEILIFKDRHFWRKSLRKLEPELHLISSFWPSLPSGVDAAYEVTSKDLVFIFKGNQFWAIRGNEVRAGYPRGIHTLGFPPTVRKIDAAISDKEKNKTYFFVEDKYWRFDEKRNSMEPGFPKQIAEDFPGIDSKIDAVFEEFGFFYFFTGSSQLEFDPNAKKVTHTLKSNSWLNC
Experimental: as §1
Recombinant MMP-3 expressed in E. Coli was obtained from Merck-Millipore (catalog number 44217). Mca-RPKPVE-Nval-WRK(Dnp)-NH2 (fluorogenic peptide substrate) was obtained from R&D Systems (catalog number ES002).
Preparation of the MMP-3 for the activity assay: MMP-3 was provided as a stock solution (0.1 mg/mL). The enzyme was diluted in water to a final concentration of 0.005 mg/mL.
MMP-3 peptide substrate was provided as a stock solution in DMSO (4.5 mM). For the assay, the substrate was diluted 1× reaction buffer to a concentration of 100 μM.
Procedure: The enzymatic assays were performed in 96-well microtiter plate, which allowed simultaneous monitoring of multiple reactions. For each reaction, 84.6 μL of 1× reaction buffer (pH 7.6), 3.4 μL of MMP-3 (final concentration 7.7 nM) and 2 μL of the corresponding new compound were added to each well. A stock solution of new compound was prepared in DMSO (100 mM), and dilutions were prepared from this stock solution with DMSO. Finally, to the mixture contained in each well 10 μL of the substrate were added (final concentration 10 μM). The reaction was incubated for 4 hours at room temperature in an orbital shaker (90 rpm).
as §2, §3

[1] = Parallel artificial membrane permeability assay (PAMPA), Blood-Brain Barrier; type: in vitro ADME; conditions: initial concentration 200 μM, pH 7.4, 4 hours; for Papp at 4 h, 200 µM: pig, read-out: Effective permeability Pe
Experimental: Parallel Artificial Membrane Permeability Assay (PAMPA)
Parallel artificial membrane permeability assay (PAMPA) described in Kansy et al., J. M. Chem. 1998; 41(7):1007-10 was used here to determine the capacity of compounds to cross the Blood-Brain Barrier (BBB) by passive diffusion (Di L et al., Eur. J. Med. Chem. 2003; 38(3):223-32). The effective permeability (Pe) of the compounds was measured at an initial concentration of 200 μM. The buffer solution was prepared from a commercial concentrated one following the manufacturer's instructions. pH was adjusted to 7.4 using a 0.5 M NaOH solution. A stock solution of new compound was prepared in DMSO and diluted with buffer solution to a final 200 μM concentration (0.5% DMSO content). The PAMPA sandwich was separated and each donor well was filled with […] of the compound solution. The acceptor plate was placed into the donor plate, ensuring that the underside of the membrane was in contact with buffer. 4 μL of the mixture of phospholipids (20 mg/ml) in dodecane was added to the filter of each well, and 200 μL of buffer solution was added to the each acceptor well. The plate was covered and incubated at room temperature in a saturated humidity atmosphere for 4 hours under orbital agitation at 100 rpm. After 4 hours, the contents of the acceptor and donor compartments were analyzed by HPLC: 150 μL of each well from the donor plate and 150 μL of each well from the acceptor plate were transferred to HPLC vials, injecting each sample into a reverse-phase C18 column (150 mm×4.6 mm×5 μm, 100 Å) (100 μL/injection from the acceptor wells, 10 μL/injection from the donor wells and for t0 references). Transport was also confirmed using mass spectrometry (MALDI-TOF).
The phospholipid mixture used was a porcine polar brain lipid extract, provided by Avanti polar lipids, with the following composition: 12.6% phosphatidylcholine (PC), 33.1% phosphatidylethanolamine (PE), 18.5% phosphatidylserine (PS), 4.1% phosphatidylinositol (PI), 0.8% phosphatidic acid and 30.9% of other compounds.
The effective permeability (Pe) after 4 hours was calculated using equation 2 and the percentage of transport (T %) was calculated using equation 3: […]
Ca(t) is the compound concentration in the acceptor well at time t
And Cd(t0) is the compound concentration in the donor well at t0.

| pIC50 (MMP-1) | pIC50 (MMP-3) | percentage of transport % T [1] [%] | Papp at 4 h, 200 µM [1] [×10⁻⁶ cm/s] | SMILES | MMP-1 IC50 (MMP-1) [µM] | MMP-3 IC50 (MMP-3) [µM] |
| --- | --- | --- | --- | --- | --- | --- |
| 4.59 | 4.27 | 14.3 | 3.5 | CCCCCCCC(=O)N1CCC[C@H]1C(=O)N(C)[C@H](C(=O)N[C@@H](CCNC(=O)c1cc(F)cc(F)c1)C(=O)NO)C(C)CC (stereo partly drawn) [Example 6, (2S)—N-[(1S)-1-[[(1S)-3-[(3,5-difluorobenzoyl)amino]-1-(hydroxycarbamoyl)propyl]carbamoyl]-2-methyl-butyl]-N-methyl-1-octanoyl-pyrrolidine-2-carboxamide] | – | – |
| 4.61 | 4.65 | 19.0 | 11.3 | CCCCCC(=O)N1CC(F)(F)C[C@H]1C(=O)N(C)[C@H](C(=O)N[C@@H](CCNC(=O)c1cc(F)cc(F)c1)C(=O)NO)C(C)CC (stereo partly drawn) [Example 7, (2S)—N-[(1S)-1-[[(1S)-3-[(3,5-difluorobenzoyl)amino]-1-(hydroxycarbamoyl)propyl]carbamoyl]-2-methyl-butyl]-4,4-difluoro-1-hexanoyl-N-methyl-pyrrolidine-2-carboxamide] | – | – |
| 5.44 | 5.42 | 9.0 | 4.7 | CCCC(CCC)C(=O)N1CCC[C@H]1C(=O)N(C)[C@H](C(=O)N[C@@H](CCNC(=O)c1cc(F)cc(F)c1)C(=O)NO)C(C)CC (stereo partly drawn) [Example 8, (2S)—N-[(1S)-1-[[(1S)-3-[(3,5-difluorobenzoyl)amino]-1-(hydroxycarbamoyl)propyl]carbamoyl]-2-methyl-butyl]-N-methyl-1-(2-propylpentanoyl)pyrrolidine-2-carboxamide] | – | – |
| 4.94 | 5.49 | 9.9 | 5.2 | CCC(C)[C@@H](C(=O)N[C@@H](CCNC(=O)c1cc(F)cc(F)c1)C(=O)NO)N(C)C(=O)[C@@H]1CCCN1C(=O)CCCOc1ccccc1 (stereo partly drawn) [Example 9, (2S)—N-[(1S)-1-[[(1S)-3-[(3,5-difluorobenzoyl)amino]-1-(hydroxycarbamoyl)propyl]carbamoyl]-2-methyl-butyl]-N-methyl-1-(4-phenoxybutanoyl)pyrrolidine-2-carboxamide] | – | – |
| 5.18 | 3.80 | 13.6 | 7.6 | CCC(C)[C@@H](C(=O)N[C@@H](CCNC(=O)c1cc(F)cc(F)c1)C(=O)NO)N(C)C(=O)[C@@H]1CC(F)(F)CN1C(=O)CCCOc1ccccc1 (stereo partly drawn) [Example 10, (2S)—N-[(1S)-1-[[(1S)-3-[(3,5-difluorobenzoyl)amino]-1-(hydroxycarbamoyl)propyl]carbamoyl]-2-methyl-butyl]-4,4-difluoro-N-methyl-1-(4-phenoxybutanoyl)pyrrolidine-2-carboxamide] | – | – |

| SMILES | pIC50 (MMP-1) | pIC50 (MMP-3) | percentage of transport % T [1] [%] | Papp at 4 h, 200 µM [1] [×10⁻⁶ cm/s] | MMP-1 IC50 (MMP-1) [µM] | MMP-3 IC50 (MMP-3) [µM] |
| --- | --- | --- | --- | --- | --- | --- |
| CCCCCC(=O)N1CCC[C@H]1C(=O)N(C)[C@H](C(=O)N[C@@H](CCNC(=O)c1ccccc1)C(=O)NO)C(C)CC (stereo partly drawn) [Example 15, (2S)—N-[(1S)-1-[[(1S)-3-benzamido-1-(hydroxycarbamoyl)propyl]carbamoyl]-2-methyl-butyl]-N-methyl-1-hexanoyl-pyrrolidine-2-carboxamide] (Hexanoyl-Pro-[NMeIle(3ξ)]-[Dab](Bz)-{NHOH}) | 4.97 | 5.00 | 2.3 | 1.1 | – | – |
| CCCCCC(=O)N1C[C@H](F)C[C@H]1C(=O)N(C)[C@H](C(=O)N[C@@H](CCNC(=O)c1ccccc1)C(=O)NO)C(C)CC (stereo partly drawn) [Example 16, (2S,4R)—N-[(1S)-1-[[(1S)-3-benzamido-1-(hydroxycarbamoyl)propyl]carbamoyl]-2-methyl-butyl]-4-fluoro-N-methyl-1-hexanoyl-pyrrolidine-2-carboxamide] (Hexanoyl-[Pro(trans-4-F)]-[NMeIle(3ξ)]-[Dab](Bz)-{NHOH}) | – | – | 7.3 | 3.7 | <1 | <1 |
